From patent US20240308956A1, “LIPOPHILIC LITHIUM SALTS FOR DIRECT DISSOLUTION IN ORGANIC SCINTILLATORS” (Lawrence Livermore National Security, LLC, priority 2022, published 2024)
Blank lines part the entries; values can stand above or below the compound they belong to.

Experiments:
[1] = Solubility of lipophilic salts in liquids; type: physicochemical
Method: (§1) Majority of tested compositions were prepared with ˜0.1 wt. % of atomic ^6Li, although a possibility of higher concentrations was also tested for some efficient formulations. For liquid preparations, solid constituents weighed in vials or glass jars at ambient condition were vacuumed and transferred into the nitrogen-filled glove box, where liquid components (EJ-309, DIPN, Tx-100, and IBA) were added for dissolution. Solutions were left to stirred overnight to reach equilibrium, then transferred into the quartz cuvettes, sealed, and removed from the glovebox. Unless indicated otherwise, measurements were made in small cylindrical cuvettes of Ø2 cm×1 cm in dimensions. For approximate evaluation of the attenuation, solutions of interest were also prepared and measured at larger scale in 2″×2″ (Ø5.1 cm×5.1 cm) quartz cuvettes.

[2] = Long-term stability of loaded solutions to precipitation; type: physicochemical
Method: as §1

[3] = without surfactant; cited from earlier work

SMILES: CCCCC(CC)COC(=O)CC(C(=O)OCC(CC)CCCC)S(=O)(=O)[O-].[Li+] (centres unmarked) [^6LiDOSS, lithium 1,4-bis(2-ethylhexoxy)-1,4-dioxobutane-2-sulfonate]
solubility of the compound in DIPN ([1]; DIPN, studies of long-term stability): about 20 wt. %
solubility in organic fluids ([1]; organic fluids, of total scintillator): about 50 wt. %
solubility of the compound ([1]; without any additional dyes): up to 40 wt. %
^6Li concentration at which solutions are stable to solid precipitation ([2]; solution containing 0.5 wt. % of E404): ≤ 0.3 wt. % ^6Li
stability to long-term precipitation ([2]; solutions containing 0.2 wt. % of atomic lithium): stable to long-term precipitation

SMILES: O=C([O-])c1cccc(-c2ccccc2)c1O.[6Li+] [^6LiPSA]
solubility in aromatics [3]: slightly soluble

stability of solutions ([2]; single dye solutions in 90:10 DIPN:IBA): highly stable
precipitation or LO degradation on storage ([2]; single dye solutions in 95:5 DIPN:IBA, sealed samples, ~1 year of observations): no precipitation or LO degradation
SMILES: CC(C)CC(=O)[O-].[6Li+] [^6LiIVA, reference compound]
